# From ChEMBL document CHEMBL1133247, “Synthesis of novel ferrocenyl sugars and their antimalarial activities” (Bioorg Med Chem Lett, 2000)
# Tests used:
# Plasmodium falciparum = experiment: In vitro antimalarial activity against chloroquine-sensitive Plasmodium falciparum FCR3; type: functional, organism-based
# [1] = Selectivity is the ratio of mean EC50 value against […] cells to that of EC50 value against Plasmodium falciparum; type: functional
# FM3A = experiment: In vitro cytotoxic activity against mouse mammary tumor FM3A cells; type: functional, cell-based
structure (smiles),measurement,setting,value
C=C[C@H]1CN2CC[C@H]1C[C@H]2[C@H](O)c1ccnc2ccc(OC)cc12 [QUININE],EC50,Plasmodium falciparum,110 nM
same,Selectivity,[1],910
same,EC50,FM3A,100 µM
